In the NIST ThermoML archive (doi:10.1021/je049662k):

Conditions: Liquid; for viscosity: Falling or rolling sphere viscometry; for mass density: isochoric method

CCCCCCC [heptane]
viscosity [mPa·s]
Conditions	303.15 K	313.15 K	323.15 K	333.15 K	343.15 K	353.15 K
100 kPa	0.368	0.33	0.303	0.273	0.245	0.231
1000 kPa	0.371	0.334	0.306	0.276	0.247	0.233
5000 kPa	0.387	0.348	0.319	0.289	0.26	0.246
10000 kPa	0.408	0.368	0.336	0.306	0.277	0.262
15000 kPa	0.429	0.388	0.354	0.323	0.294	0.278
20000 kPa	0.45	0.407	0.371	0.34	0.31	0.293
25000 kPa	0.471	0.427	0.389	0.357	0.326	0.307
30000 kPa	0.492	0.446	0.406	0.374	0.341	0.322
35000 kPa	0.514	0.465	0.424	0.39	0.357	0.336
40000 kPa	0.535	0.484	0.442	0.407	0.372	0.349
45000 kPa	0.556	0.503	0.461	0.423	0.387	0.361
50000 kPa	0.578	0.522	0.479	0.439	0.402	0.374
55000 kPa	0.6	0.542	0.498	0.456	0.416	0.386
60000 kPa	0.622	0.562	0.517	0.472	0.431	0.397

Cc1ccccc1 [toluene]
viscosity [mPa·s]
Conditions	303.15 K	313.15 K	323.15 K	333.15 K	343.15 K	353.15 K
100 kPa	0.525	0.469	0.422	0.382	0.349	0.32
1000 kPa	0.526	0.474	0.427	0.386	0.351	0.32
5000 kPa	0.544	0.487	0.439	0.397	0.362	0.331
10000 kPa	0.568	0.509	0.458	0.413	0.376	0.344
15000 kPa	0.593	0.529	0.476	0.43	0.391	0.359
20000 kPa	0.617	0.55	0.495	0.446	0.406	0.373
25000 kPa	0.64	0.57	0.514	0.463	0.421	0.387
30000 kPa	0.662	0.59	0.533	0.48	0.437	0.401
35000 kPa	0.685	0.61	0.552	0.497	0.453	0.415
40000 kPa	0.707	0.63	0.572	0.515	0.469	0.429
45000 kPa	0.729	0.651	0.592	0.533	0.485	0.443
50000 kPa	0.752	0.671	0.612	0.551	0.502	0.458
55000 kPa	0.774	0.693	0.633	0.571	0.52	0.473
60000 kPa	0.797	0.715	0.654	0.59	0.537	0.488

CCC(C)C(C)C (stereo unspecified) [2,3-dimethylpentane]
Conditions	mass density [kg/m3]	viscosity [mPa·s]
278.15 K, 100 kPa	707.6	–
278.15 K, 1000 kPa	708.3	–
278.15 K, 5000 kPa	711.6	–
278.15 K, 10000 kPa	715.5	–
278.15 K, 15000 kPa	719.1	–
278.15 K, 20000 kPa	722.7	–
278.15 K, 25000 kPa	726	–
278.15 K, 30000 kPa	729.2	–
278.15 K, 35000 kPa	732.2	–
278.15 K, 40000 kPa	735.2	–
278.15 K, 45000 kPa	738	–
283.15 K, 100 kPa	703.2	–
283.15 K, 1000 kPa	704	–
283.15 K, 5000 kPa	707.4	–
283.15 K, 10000 kPa	711.5	–
283.15 K, 15000 kPa	715.3	–
283.15 K, 20000 kPa	718.9	–
283.15 K, 25000 kPa	722.3	–
283.15 K, 30000 kPa	725.6	–
283.15 K, 35000 kPa	728.7	–
283.15 K, 40000 kPa	731.7	–
283.15 K, 45000 kPa	734.6	–
293.15 K, 100 kPa	694.9	–
293.15 K, 1000 kPa	695.7	–
293.15 K, 5000 kPa	699.3	–
293.15 K, 10000 kPa	703.6	–
293.15 K, 15000 kPa	707.7	–
293.15 K, 20000 kPa	711.5	–
293.15 K, 25000 kPa	715.1	–
293.15 K, 30000 kPa	718.6	–
293.15 K, 35000 kPa	721.9	–
293.15 K, 40000 kPa	725	–
293.15 K, 45000 kPa	728	–
303.15 K, 100 kPa	686.3	0.356
303.15 K, 1000 kPa	687.2	0.36
303.15 K, 5000 kPa	691.1	0.377
303.15 K, 10000 kPa	695.7	0.398
303.15 K, 15000 kPa	700	0.419
303.15 K, 20000 kPa	704.1	0.441
303.15 K, 25000 kPa	707.9	0.462
303.15 K, 30000 kPa	711.6	0.485
303.15 K, 35000 kPa	715	0.507
303.15 K, 40000 kPa	718.3	0.53
303.15 K, 45000 kPa	721.5	0.553
303.15 K, 50000 kPa	–	0.576
303.15 K, 55000 kPa	–	0.6
303.15 K, 60000 kPa	–	0.624
313.15 K, 100 kPa	677.6	0.324
313.15 K, 1000 kPa	678.6	0.328
313.15 K, 5000 kPa	682.8	0.343
313.15 K, 10000 kPa	687.7	0.361
313.15 K, 15000 kPa	692.3	0.38
313.15 K, 20000 kPa	696.6	0.399
313.15 K, 25000 kPa	700.7	0.418
313.15 K, 30000 kPa	704.5	0.438
313.15 K, 35000 kPa	708.2	0.458
313.15 K, 40000 kPa	711.6	0.479
313.15 K, 45000 kPa	715	0.5
313.15 K, 50000 kPa	–	0.522
313.15 K, 55000 kPa	–	0.544
313.15 K, 60000 kPa	–	0.566
323.15 K, 100 kPa	668.7	0.29
323.15 K, 1000 kPa	669.8	0.294
323.15 K, 5000 kPa	674.3	0.308
323.15 K, 10000 kPa	679.6	0.326
323.15 K, 15000 kPa	684.5	0.344
323.15 K, 20000 kPa	689.1	0.362
323.15 K, 25000 kPa	693.4	0.381
323.15 K, 30000 kPa	697.5	0.399
323.15 K, 35000 kPa	701.3	0.418
323.15 K, 40000 kPa	705	0.437
323.15 K, 45000 kPa	708.4	0.457
323.15 K, 50000 kPa	–	0.476
323.15 K, 55000 kPa	–	0.496
323.15 K, 60000 kPa	–	0.517
333.15 K, 100 kPa	659.7	0.262
333.15 K, 1000 kPa	660.9	0.266
333.15 K, 5000 kPa	665.8	0.28
333.15 K, 10000 kPa	671.5	0.298
333.15 K, 15000 kPa	676.7	0.316
333.15 K, 20000 kPa	681.6	0.334
333.15 K, 25000 kPa	686.2	0.352
333.15 K, 30000 kPa	690.5	0.369
333.15 K, 35000 kPa	694.5	0.387
333.15 K, 40000 kPa	698.3	0.404
333.15 K, 45000 kPa	702	0.422
333.15 K, 50000 kPa	–	0.439
333.15 K, 55000 kPa	–	0.457
333.15 K, 60000 kPa	–	0.474
343.15 K, 100 kPa	650.6	0.244
343.15 K, 1000 kPa	651.9	0.247
343.15 K, 5000 kPa	657.2	0.26
343.15 K, 10000 kPa	663.3	0.276
343.15 K, 15000 kPa	668.9	0.292
343.15 K, 20000 kPa	674.1	0.309
343.15 K, 25000 kPa	678.9	0.325
343.15 K, 30000 kPa	683.5	0.342
343.15 K, 35000 kPa	687.7	0.359
343.15 K, 40000 kPa	691.7	0.376
343.15 K, 45000 kPa	695.5	0.393
343.15 K, 50000 kPa	–	0.41
343.15 K, 55000 kPa	–	0.428
343.15 K, 60000 kPa	–	0.445
353.15 K, 100 kPa	641.3	0.232
353.15 K, 1000 kPa	642.7	0.234
353.15 K, 5000 kPa	648.5	0.246
353.15 K, 10000 kPa	655.1	0.261
353.15 K, 15000 kPa	661.1	0.276
353.15 K, 20000 kPa	666.6	0.291
353.15 K, 25000 kPa	671.7	0.306
353.15 K, 30000 kPa	676.5	0.321
353.15 K, 35000 kPa	680.9	0.336
353.15 K, 40000 kPa	685.1	0.35
353.15 K, 45000 kPa	689.1	0.365
353.15 K, 50000 kPa	–	0.381
353.15 K, 55000 kPa	–	0.395
353.15 K, 60000 kPa	–	0.411
